From patent US9801960B2, “Probe for a biological specimen and labelling method and screening method using the probe” (CANON KABUSHIKI KAISHA, priority 2008, dated 2017)

What was measured:
[1] = Excitation and fluorescence emission wavelength measurement; assay type: physicochemical; design: Stokes shift (λem − λex): unit not given here; details: aqueous solution: 10 mg/mL solution in DMSO diluted 500-fold with purified water
Protocol: It should be noted that the excitation wavelength and the fluorescence emission wavelength of the staining compound were determined by measuring an aqueous solution, which had been obtained by diluting 500-fold a 10 mg/mL solution of the staining compound in DMSO with purified water, with a fluorescence spectrophotometer FL 4500 manufactured by Hitachi High-Technologies Corporation.

Zebrafish juveniles = assay: In vivo labelling of Zebrafish juveniles with probe for biological specimen; design: key to Staining property: +++: stained; −: no stained; key to Fluorescence sensitivity: +++: strongly observed; ++: moderately observed; +: weakly observed; −: no stained; details: 1 hour; for Site(s) to be labelled: 10 ng/mL in water, stereoscopic microscope; for Fluorescence sensitivity / Staining property: 10 ng/mL; for Fluorescence sensitivity: fluorescence intensity visually evaluated; for Staining property: visually evaluated
Protocol: Five juveniles of Zebrafish were put into one well of a well plate together with rearing water. After rearing water had been discharged, 1 mL of distilled water was added to the well, and a solution of a staining compound (1) in DMSO was further added thereto so as to achieve a concentration of 10 ng/mL, followed by gentle stirring (pipetting). Further, Egg Water was prepared by dissolving artificial seawater SEALIFE (manufactured by Marinetech Co., Ltd.) in distilled water at a concentration of 60 mg/L. After the whole had been left to stand for 1 hour, distilled water in the well was discharged and replaced by 1 mL of fresh Egg Water. In addition, such an operation that Egg Water was discharged and replaced by 1 mL of fresh Egg Water was repeated twice. One of the juveniles was taken out from the well onto a dish, supplemented with 100 μL of a 3% methylcellulose aqueous solution to fix the movement of the juvenile, and photographed with a stereoscopic microscope (MZ10F: manufactured by Leica Microsystems K.K.).
The same operation as that in Example 1 was performed except that the staining compound (1) used in Example 1 was changed to any one of the staining compounds described in Table 1.
The same operation as that in Example 1 was performed except that the staining compound (1) used in Example 1 was changed to any one of indocyanine green (ICG) and fluorescein.
The staining property of each of the staining compounds of Labelled Examples 1 to 78 and Labelled Comparative Examples 1 and 2 was visually evaluated (+++: stained and −: no stained).
The fluorescence intensity of each of the staining compounds of Labelled Examples 1 to 78 and Labelled Comparative Examples 1 and 2 was visually evaluated (+++: strongly observed, ++: moderately observed, +: weakly observed, and −: no stained).

[2] = Storage stability of staining compound solution in DMSO; assay type: physicochemical; details: 10 ng/mL in DMSO, closed glass container, normal temperature, 1 month; rate of change of absorbance and fluorescence intensity
Protocol: A 10 ng/mL solution of each of the staining compounds of Labelled Examples 1 to 78 and Labelled Comparative Examples 1 and 2 in DMSO was prepared, charged into a well-closed container made of glass, and left to stand still at normal temperature for 1 month. The absorbance and the fluorescence intensity at the time of the start of a storage stability test were measured at a given wavelength, and their rates of change were examined (+++: rates of change of the absorbance and the fluorescence intensity are less than 5%, and thus, the storage stability is highly excellent; ++: rates of change of the absorbance and fluorescence intensity are 5 to 15%, and thus, the storage stability is excellent; and −: rates of change of the absorbance and fluorescence intensity are more than 15%, and thus, the storage stability is poor).

| Structure (SMILES) | Excitation wavelength λex [1] [nm] | Fluorescence emission wavelength λem [1] [nm] | Stokes shift (λem − λex) [1] | Site(s) to be labelled (Zebrafish juveniles) | Fluorescence sensitivity (Zebrafish juveniles) | Staining property (Zebrafish juveniles) | Storage stability [2] |
| --- | --- | --- | --- | --- | --- | --- | --- |
| O=C(O)Cn1c(=O)/c(=C\c2ccc3c(c2)C2CCCC2N3c2ccccc2)s/c1=C1/SC(=S)N(Cc2ccccc2)C1=O (stereo not drawn) [Dye 66] | 586 | 661 | 75 | blood vessel, nose, and gastrointestinal tract | ++ | +++ | ++ (rates of change of the absorbance and fluorescence intensity are 5 to 15%, and thus, the storage stability is excellent) |
| COc1ccc(N2c3ccc(/C=c4/s/c(=C5/SC(=S)N(Cc6ccccc6)C5=O)n(CC(=O)O)c4=O)cc3C3CCCC32)cc1 (stereo not drawn) [Dye 67] | 568 | 712 | 144 | blood vessel | +++ | +++ | +++ (rates of change of the absorbance and the fluorescence intensity are less than 5%, and thus, the storage stability is highly excellent) |
| CCN1C(=O)/C(=c2\s/c(=C/c3ccc4c(c3)C3CCCC3N4c3ccc(OC)cc3)c(=O)n2CC)SC1=S (stereo not drawn) [Dye 68] | 602 | 667 | 65 | gastrointestinal tract | +++ | +++ | +++ (rates of change of the absorbance and the fluorescence intensity are less than 5%, and thus, the storage stability is highly excellent) |
| C=CCN1C(=O)/C(=c2\s/c(=C/c3ccc4c(c3)C3CCCC3N4c3ccc(C=C(c4ccccc4)c4ccccc4)cc3)c(=O)n2CC(=O)OCC)SC1=S (stereo not drawn) [Dye 69] | 600 | 656 | 56 | gastrointestinal tract | +++ | +++ | +++ (rates of change of the absorbance and the fluorescence intensity are less than 5%, and thus, the storage stability is highly excellent) |
| COc1ccc(N2c3ccc(/C=C/c4sc5ccccc5[n+]4CCC(=O)O)cc3C3CCCC32)cc1 (stereo not drawn) [Dye 72] | 583 | 668 | 85 | gallbladder and gastrointestinal tract | +++ | +++ | +++ (rates of change of the absorbance and the fluorescence intensity are less than 5%, and thus, the storage stability is highly excellent) |
| O=C(O)CC[n+]1c(/C=C/c2ccc3c(c2)C2CCCC2N3c2ccc(C=C(c3ccccc3)c3ccccc3)cc2)sc2ccccc21 (stereo not drawn) [Dye 73] | 598 | 726 | 128 | nose | +++ | +++ | +++ (rates of change of the absorbance and the fluorescence intensity are less than 5%, and thus, the storage stability is highly excellent) |
| COc1ccc(N2c3ccc(/C=C/C4=[N+](CCC(=O)O)c5ccccc5C4(C)C)cc3C3CCCC32)cc1 (stereo not drawn) [Dye 76] | 592 | 671 | 79 | gastrointestinal tract and lower abdomen | +++ | +++ | +++ (rates of change of the absorbance and the fluorescence intensity are less than 5%, and thus, the storage stability is highly excellent) |
| O=C(O)CN1C(=O)/C(=C\c2ccc3c(c2)C2CCCC2N3c2ccc(C=C(c3ccccc3)c3ccccc3)cc2)SC1=S (stereo not drawn) [Dye 88] | 535 | 655 | 120 | nose | +++ | +++ | +++ (rates of change of the absorbance and the fluorescence intensity are less than 5%, and thus, the storage stability is highly excellent) |
| CCN1C(=O)/C(=c2/s/c(=C/c3ccc4c(c3)C3CCCC3N4c3ccc(C=C(c4ccccc4)c4ccccc4)cc3)c(=O)n2CC(=O)O)SC1=S (stereo not drawn) [Dye 102] | 551 | 673 | 122 | gastrointestinal tract | +++ | +++ | +++ (rates of change of the absorbance and the fluorescence intensity are less than 5%, and thus, the storage stability is highly excellent) |
| CCN1C(=O)/C(=c2\s/c(=C/c3ccc4c(c3)C3CCCC3N4c3ccc(C=C(c4ccccc4)c4ccccc4)cc3)c(=O)n2CC(=O)O)SC1=S (stereo not drawn) [Dye 103] | 567 | 702 | 135 | gastrointestinal tract | +++ | +++ | +++ (rates of change of the absorbance and the fluorescence intensity are less than 5%, and thus, the storage stability is highly excellent) |
| N#C/C(=C\c1ccc2c(c1)C1CCCC1N2c1ccccc1)C(=O)O (stereo not drawn) [Dye 105] | 451 | 530 | 79 | liver and gastrointestinal tract | ++ | +++ | +++ (rates of change of the absorbance and the fluorescence intensity are less than 5%, and thus, the storage stability is highly excellent) |
| N#C/C(=C\c1ccc2c(c1)C1CCCC1N2c1ccc(C=C(c2ccccc2)c2ccccc2)cc1)C(=O)O (stereo not drawn) [Dye 108] | 479 | 600 | 121 | – | +++ | +++ | +++ (rates of change of the absorbance and the fluorescence intensity are less than 5%, and thus, the storage stability is highly excellent) |
| CCN1c2ccc(/C=C3/SC(=S)N(CC(=O)O)C3=O)cc2C2CCCC21 (stereo not drawn) [Dye 109] | 440 | 600 | 160 | liver and gastrointestinal tract | +++ | +++ | +++ (rates of change of the absorbance and the fluorescence intensity are less than 5%, and thus, the storage stability is highly excellent) |
| CCN1C(=O)/C(=c2/s/c(=C/c3ccc4c(c3)C3CCCC3N4CC)c(=O)n2CC(=O)O)SC1=S (stereo not drawn) [Dye 110] | 623 | 671 | 48 | blood vessel | +++ | +++ | +++ (rates of change of the absorbance and the fluorescence intensity are less than 5%, and thus, the storage stability is highly excellent) |
| CSc1cccc(N2c3ccc(/C=C4/SC(=S)N(CC(=O)O)C4=O)cc3C3CCCC32)c1 (stereo not drawn) [Dye 115] | 520 | 640 | 120 | blood vessel, gallbladder, and gastrointestinal | +++ | +++ | +++ (rates of change of the absorbance and the fluorescence intensity are less than 5%, and thus, the storage stability is highly excellent) |
| O=C(O)CN1C(=O)/C(=C\c2cc(Br)c3c(c2)C2CCCC2N3Cc2ccccc2)SC1=S (stereo not drawn) [Dye 116] | 486 | 606 | 120 | blood vessel, gallbladder, and gastrointestinal | ++ | +++ | +++ (rates of change of the absorbance and the fluorescence intensity are less than 5%, and thus, the storage stability is highly excellent) |
